Among the data in patent US9079902B2, “Heteroaryl sodium channel inhibitors” (AMGEN INC., priority 2011, dated 2015) are IC50 and inhibition values, retold here.

The structures appear in SMILES notation. Where a name gives a salt, the structure may show the parent alone.

The target of data set [1] is Nav 1.5 (Homo sapiens (Human), UniProt Q14524). The data set can be described thus: Nav 1.5 in vitro assay (IonWorks Quattro population patch-clamp). Type of data set: cell-based. Particulars: 293 cells stably transfected with Nav 1.5; 26th pulse to -20 mV, 5 Hz. How it is done:
(§1) Nav 1.7 and Nav 1.5 In Vitro Assay
(§2) 293 cells stably transfected with either Nav 1.7 or with Nav 1.5 were recorded in population patch-clamp mode with the IonWorks® Quattro automated electrophysiology system in accordance with the manufacturer's specifications (Molecular Devices, LLC, Sunnyvale, Calif.). Sodium channel currents were measured in response to a train of depolarizations that induced successively greater inactivation.
(§3) Cells were held at −110 mV for three seconds (Nav 1.7) or half a second (Nav 1.5) from a holding voltage of −15 mV, then put through a series of 26 pulses of 150 msec duration to −20 mV at a frequency of 5 Hz. Cells were then left unclamped for a period of 3 to 8 minutes while a single concentration of test compound was added. Cells were then reclamped and put through the same voltage protocol. Current at the end of the 26th pulse to −20 mV was subtracted from the peak current evoked by the 26th pulse to −20 mV to correct for leak current. Percent block was calculated for each concentration in duplicate, and IC50 curves were fitted to percent block as a function of concentration.
(In general: The patch-clamp technique gives a direct electrical read-out from membranes.)

In data set [2] the target is Nav 1.7 (Homo sapiens (Human), UniProt Q15858). The data set is described as follows: Nav 1.7 in vitro assay (IonWorks Quattro population patch-clamp). Type of data set: cell-based. The settings on record: 293 cells stably transfected with Nav 1.7; for IC50: 26th pulse to -20 mV, 5 Hz; for inhibition at 4.9 µM: HEK293. How it is done:
as §1, §2, §3

Sequence of Nav 1.5 (Q14524 whole entry): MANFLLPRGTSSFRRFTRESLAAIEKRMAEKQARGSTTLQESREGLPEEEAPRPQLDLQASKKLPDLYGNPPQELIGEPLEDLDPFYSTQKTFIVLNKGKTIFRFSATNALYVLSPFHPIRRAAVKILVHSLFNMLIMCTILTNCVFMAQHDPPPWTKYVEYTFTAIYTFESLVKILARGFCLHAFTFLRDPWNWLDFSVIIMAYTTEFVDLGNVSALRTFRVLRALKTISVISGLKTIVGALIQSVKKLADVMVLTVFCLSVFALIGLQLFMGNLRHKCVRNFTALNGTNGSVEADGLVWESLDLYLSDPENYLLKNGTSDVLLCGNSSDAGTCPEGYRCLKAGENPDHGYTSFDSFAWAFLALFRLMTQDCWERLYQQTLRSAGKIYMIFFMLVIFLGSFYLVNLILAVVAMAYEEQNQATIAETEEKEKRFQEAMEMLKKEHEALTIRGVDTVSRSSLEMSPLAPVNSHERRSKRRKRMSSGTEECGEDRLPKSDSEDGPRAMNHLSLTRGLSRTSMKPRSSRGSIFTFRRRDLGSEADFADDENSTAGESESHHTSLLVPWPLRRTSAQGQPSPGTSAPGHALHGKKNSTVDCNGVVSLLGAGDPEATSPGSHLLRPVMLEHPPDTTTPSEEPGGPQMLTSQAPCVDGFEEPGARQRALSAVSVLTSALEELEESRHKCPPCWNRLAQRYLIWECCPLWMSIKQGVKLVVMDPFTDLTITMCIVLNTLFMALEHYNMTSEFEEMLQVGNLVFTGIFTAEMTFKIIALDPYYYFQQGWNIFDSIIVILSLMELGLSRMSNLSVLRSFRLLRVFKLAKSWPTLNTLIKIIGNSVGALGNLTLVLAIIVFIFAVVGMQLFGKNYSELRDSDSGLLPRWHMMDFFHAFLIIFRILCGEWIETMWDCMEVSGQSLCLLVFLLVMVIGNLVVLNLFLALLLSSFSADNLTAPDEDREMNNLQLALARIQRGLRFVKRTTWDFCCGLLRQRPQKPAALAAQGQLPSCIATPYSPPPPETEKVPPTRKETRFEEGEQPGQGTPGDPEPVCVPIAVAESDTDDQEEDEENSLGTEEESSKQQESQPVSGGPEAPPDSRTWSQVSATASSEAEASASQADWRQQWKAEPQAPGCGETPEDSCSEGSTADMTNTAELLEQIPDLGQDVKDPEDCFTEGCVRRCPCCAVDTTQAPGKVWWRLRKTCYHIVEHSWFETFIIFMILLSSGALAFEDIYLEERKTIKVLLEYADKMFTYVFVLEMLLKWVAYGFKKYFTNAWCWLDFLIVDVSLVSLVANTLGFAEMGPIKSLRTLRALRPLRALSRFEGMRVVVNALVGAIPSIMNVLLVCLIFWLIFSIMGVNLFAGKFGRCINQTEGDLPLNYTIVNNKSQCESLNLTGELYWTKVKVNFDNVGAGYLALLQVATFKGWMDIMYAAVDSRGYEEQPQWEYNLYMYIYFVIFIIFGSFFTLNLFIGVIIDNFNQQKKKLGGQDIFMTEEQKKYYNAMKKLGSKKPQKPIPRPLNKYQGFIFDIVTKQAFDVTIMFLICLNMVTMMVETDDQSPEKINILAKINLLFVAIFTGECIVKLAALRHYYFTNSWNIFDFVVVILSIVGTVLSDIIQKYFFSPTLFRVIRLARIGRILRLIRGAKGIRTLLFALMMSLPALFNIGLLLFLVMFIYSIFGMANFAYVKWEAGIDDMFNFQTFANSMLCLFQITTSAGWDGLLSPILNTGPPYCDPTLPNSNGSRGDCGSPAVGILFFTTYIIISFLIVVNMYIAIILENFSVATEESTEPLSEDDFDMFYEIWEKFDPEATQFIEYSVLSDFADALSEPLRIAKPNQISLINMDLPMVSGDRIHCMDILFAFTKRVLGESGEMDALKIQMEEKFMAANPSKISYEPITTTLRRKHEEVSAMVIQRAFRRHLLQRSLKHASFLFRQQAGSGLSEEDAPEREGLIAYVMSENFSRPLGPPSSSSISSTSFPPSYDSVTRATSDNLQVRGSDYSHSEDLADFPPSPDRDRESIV
Sequence of Nav 1.7 (Q15858 whole entry): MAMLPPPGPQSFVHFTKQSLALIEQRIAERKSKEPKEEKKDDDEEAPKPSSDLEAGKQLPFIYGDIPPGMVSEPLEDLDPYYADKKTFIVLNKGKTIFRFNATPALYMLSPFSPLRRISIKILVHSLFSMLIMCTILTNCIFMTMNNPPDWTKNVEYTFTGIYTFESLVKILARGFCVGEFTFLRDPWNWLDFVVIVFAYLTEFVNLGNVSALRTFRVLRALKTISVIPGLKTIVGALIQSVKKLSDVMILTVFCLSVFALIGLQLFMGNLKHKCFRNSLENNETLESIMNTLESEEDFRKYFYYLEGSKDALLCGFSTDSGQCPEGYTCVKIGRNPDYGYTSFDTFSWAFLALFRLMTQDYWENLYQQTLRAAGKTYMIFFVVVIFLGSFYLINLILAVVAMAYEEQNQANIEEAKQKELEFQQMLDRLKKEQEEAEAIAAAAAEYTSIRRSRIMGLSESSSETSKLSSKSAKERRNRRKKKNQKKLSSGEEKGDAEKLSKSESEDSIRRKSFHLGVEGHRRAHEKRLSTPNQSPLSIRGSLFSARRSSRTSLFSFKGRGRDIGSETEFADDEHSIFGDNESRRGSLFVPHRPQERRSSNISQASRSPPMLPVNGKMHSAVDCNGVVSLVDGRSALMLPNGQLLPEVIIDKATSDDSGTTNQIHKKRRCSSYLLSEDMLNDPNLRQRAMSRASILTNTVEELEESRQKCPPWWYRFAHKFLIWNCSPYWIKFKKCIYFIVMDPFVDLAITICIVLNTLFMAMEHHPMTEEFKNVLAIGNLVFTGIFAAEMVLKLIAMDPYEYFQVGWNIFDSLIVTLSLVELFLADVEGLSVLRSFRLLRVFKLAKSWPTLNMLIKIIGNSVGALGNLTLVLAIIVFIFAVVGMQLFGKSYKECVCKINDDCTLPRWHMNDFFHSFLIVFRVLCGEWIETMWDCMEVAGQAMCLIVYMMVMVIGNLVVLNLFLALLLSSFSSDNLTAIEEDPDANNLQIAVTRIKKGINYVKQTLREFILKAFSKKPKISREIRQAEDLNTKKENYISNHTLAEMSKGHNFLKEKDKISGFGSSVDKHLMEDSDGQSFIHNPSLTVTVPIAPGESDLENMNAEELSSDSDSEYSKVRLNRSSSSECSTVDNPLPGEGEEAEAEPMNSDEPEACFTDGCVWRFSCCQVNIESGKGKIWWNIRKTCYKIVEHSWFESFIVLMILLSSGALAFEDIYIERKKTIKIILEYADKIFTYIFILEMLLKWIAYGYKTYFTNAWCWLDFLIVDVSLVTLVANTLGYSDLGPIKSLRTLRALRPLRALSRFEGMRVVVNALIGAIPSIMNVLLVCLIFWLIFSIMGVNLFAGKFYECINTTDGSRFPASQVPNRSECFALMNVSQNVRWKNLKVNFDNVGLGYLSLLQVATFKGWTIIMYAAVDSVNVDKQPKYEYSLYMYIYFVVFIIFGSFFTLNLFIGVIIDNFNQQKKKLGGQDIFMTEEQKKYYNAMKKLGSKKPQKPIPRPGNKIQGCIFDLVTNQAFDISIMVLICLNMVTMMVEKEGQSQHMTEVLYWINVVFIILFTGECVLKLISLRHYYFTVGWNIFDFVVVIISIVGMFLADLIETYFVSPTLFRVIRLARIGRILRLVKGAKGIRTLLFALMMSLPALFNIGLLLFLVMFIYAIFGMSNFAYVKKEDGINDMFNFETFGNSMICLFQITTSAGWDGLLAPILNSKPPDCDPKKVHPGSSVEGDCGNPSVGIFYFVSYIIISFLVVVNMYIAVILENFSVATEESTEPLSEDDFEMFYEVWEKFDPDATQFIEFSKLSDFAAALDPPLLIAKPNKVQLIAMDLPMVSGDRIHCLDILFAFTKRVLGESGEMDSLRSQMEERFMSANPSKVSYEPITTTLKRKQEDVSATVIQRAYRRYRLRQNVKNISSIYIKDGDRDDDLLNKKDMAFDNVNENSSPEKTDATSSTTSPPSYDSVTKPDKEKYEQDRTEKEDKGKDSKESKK

The term IC50 denotes the concentration at which inhibition is half-maximal. Low values mean greater potency in that assay, high ones weaker potency in that assay. As for `Cn1nccc1-c1cc(C(F)(F)F)ccc1-c1c[nH]c2nc(S(=O)(=O)Nc3ncns3)ccc12` [Example 25, 3-(2-(1-Methyl-1H-Pyrazol-5-yl)-4-(Trifluoromethyl)Phenyl)-N-(1,2,4-Thiadiazol-5-yl)-1H-Pyrrolo[2,3-B]Pyridine-6-Sulfonamide], the half-inhibitory concentration (IC50) in data set [1] was 8.55 µM; in data set [2], 6.7 µM.
For `Cn1cc(-c2cc(Br)cc(C(F)(F)F)c2)c2ccc(S(=O)(=O)Nc3ncns3)cc21` [Example 17, 3-(3-Bromo-5-(Trifluoromethyl)Phenyl)-1-Methyl-N-(1,2,4-Thiadiazol-5-yl)-1H-Indole-6-Sulfonamide] the same measures were > 10 µM and 9.11 µM.
Consider `Cn1nccc1-c1cc(C(F)(F)F)ccc1-c1cn(S(C)(=O)=O)c2cc(S(=O)(=O)Nc3ncns3)ccc12` [Example 7, 3-(2-(1-Methyl-1H-Pyrazol-5-yl)-4-(Trifluoromethyl)Phenyl)-1-(Methylsulfonyl)-N-(1,2,4-Thiadiazol-5-yl)-1H-Indole-6-Sulfonamide], for which the half-inhibitory concentration (IC50) in data set [1] is > 10 µM; in data set [2] it was 0.532 µM.
Taken in the same sequence, the figures for `Cn1cc(-c2ccc(C(F)(F)F)cc2C2=CCNCC2)c2ccc(S(=O)(=O)Nc3cscn3)cc21` [Example 66, 1-Methyl-3-(2-(1,2,3,6-Tetrahydropyridin-4-Yl)-4-(Trifluoromethyl)Phenyl)-N-(Thiazol-4-Yl)-1H-Indole-6-Sulfonamide] were > 10 µM and 1.41 µM.
By inhibition is commonly meant the percentage by which the read-out fell short of the control. A high value points to a response far below the control. As for `COc1ccc(-c2cn(C)c3cc(S(=O)(=O)Nc4ncns4)ccc23)cn1` [Example 61, 3-(6-Methoxypyridin-3-Yl)-1-Methyl-N-(1,2,4-Thiadiazol-5-Yl)-1H-Indole-6-Sulfonamide], the 50% inhibitory concentration (IC50) in data set [1] is > 10 µM. In addition, the inhibition at 4.9 µM in data set [2] stood at 37.2%.
`Cn1cc(-c2ccc(C(F)(F)F)cc2-c2ccn(C3CNC3)n2)c2ccc(S(=O)(=O)Nc3ncns3)cc21` [Example 19, 3-(2-(1-(Azetidin-3-yl)-1H-Pyrazol-3-yl)-4-(Trifluoromethyl)Phenyl)-1-Methyl-N-(1,2,4-Thiadiazol-5-yl)-1H-Indole-6-Sulfonamide Hydrochloride]: the figures for the IC50 in data set [1] and in data set [2] were > 10 µM and 0.263 µM, respectively.
As to `CC#Cc1cncc(-c2cn(C)c3cc(S(=O)(=O)Nc4ncns4)ccc23)c1` [Example 14, 1-Methyl-3-(5-(Prop-1-Yn-1-yl)Pyridin-3-yl)-N-(1,2,4-Thiadiazol-5-yl)-1H-Indole-6-Sulfonamide], the values for the half-maximal inhibitory concentration (IC50) in data set [1] and in data set [2] were > 10 µM and 3.29 µM, respectively.
Regarding `Cn1cc(-c2cc3ccccc3o2)c2ccc(S(=O)(=O)Nc3ncns3)cc21` [Example 59, 3-(Benzofuran-2-Yl)-1-Methyl-N-(1,2,4-Thiadiazol-5-Yl)-1H-Indole-6-Sulfonamide], in data set [1], the concentration for half-maximal inhibition (IC50) was > 10 µM. At 4.9 µM the inhibition in data set [2] was 36.2%.
Consider `Cn1cc(-c2cccc3c2CNCC3)c2ccc(S(=O)(=O)Nc3ncns3)cc21` [Example 54, 1-Methyl-3-(1,2,3,4-Tetrahydroisoquinolin-8-Yl)-N-(1,2,4-Thiadiazol-5-Yl)-1H-Indole-6-Sulfonamide Hydrochloride], for which the IC50 was > 10 µM in data set [1] and 1.63 µM in data set [2].
For `Cn1nccc1-c1cc(C(F)(F)F)ccc1-c1cn(C)c2cc(S(=O)(=O)Nc3ccncn3)ccc12` [Example 12, 1-Methyl-3-(2-(1-Methyl-1H-Pyrazol-5-yl)-4-(Trifluoromethyl)Phenyl)-N-(Pyrimidin-4-yl)-1H-Indole-6-Sulfonamide] the same measures were > 10 µM and 0.835 µM.
Taken in the same sequence, the figures for `Cn1cc(-c2ccncc2Cl)c2ccc(S(=O)(=O)Nc3ncns3)cc21` [Example 51, 3-(3-Chloropyridin-4-Yl)-1-Methyl-N-(1,2,4-Thiadiazol-5-Yl)-1H-Indole-6-Sulfonamide] were > 10 µM and 8.53 µM.
For `Cn1nccc1-c1cc(Cl)ccc1-n1cnc2cc(S(=O)(=O)Nc3ncns3)ccc21` [Example 62, 1-(4-Chloro-2-(1-Methyl-1H-Pyrazol-5-Yl)Phenyl)-N-(1,2,4-Thiadiazol-5-Yl)-1H-Benzo[D]Imidazole-5-Sulfonamide] the same measures were > 10 µM and 2.68 µM.
For `COc1cc(-c2cn(C)c3cc(S(=O)(=O)Nc4ncns4)ccc23)c(F)cn1` [Example 56, 3-(5-Fluoro-2-Methoxypyridin-4-Yl)-1-Methyl-N-(1,2,4-Thiadiazol-5-Yl)-1H-Indole-6-Sulfonamide], the concentration for half-maximal inhibition (IC50) in data set [1] is > 10 µM. The inhibition at 4.9 µM in data set [2] amounted to 20.8%.
For the compound `Cn1nccc1-c1cc(C(F)(F)F)ccc1-c1cn(C)c2cc(S(=O)(=O)Nc3nc(Br)ns3)ccc12` [Example 50, N-(3-Bromo-1,2,4-Thiadiazol-5-Yl)-1-Methyl-3-(2-(1-Methyl-1H-Pyrazol-5-Yl)-4-(Trifluoromethyl)Phenyl)-1H-Indole-6-Sulfonamide], the results for the half-inhibitory concentration (IC50) in data set [1] and in data set [2] were > 10 µM and 1.38 µM, respectively.
As for `Cn1nccc1-c1cc(C(F)(F)F)ccc1-c1cn(C)c2nc(S(=O)(=O)Nc3ncns3)ccc12` [Example 26, 1-Methyl-3-(2-(1-Methyl-1H-Pyrazol-5-yl)-4-(Trifluoromethyl)Phenyl)-N-(1,2,4-Thiadiazol-5-yl)-1H-Pyrrolo [2,3-B]Pyridine-6-Sulfonamide], the values for the IC50 in data set [1] and in data set [2] were > 10 µM and 1.02 µM, respectively.
Taken in the same sequence, the figures for `Cn1cc(-c2cccc3c2CCNC3)c2ccc(S(=O)(=O)Nc3ncns3)cc21` [Example 53, 1-Methyl-3-(1,2,3,4-Tetrahydroisoquinolin-5-Yl)-N-(1,2,4-Thiadiazol-5-Yl)-1H-Indole-6-Sulfonamide Hydrochloride] were > 10 µM and 0.292 µM.
For `Cn1cc(-c2ccc(C(F)(F)F)cc2-c2ccncc2)c2ccc(S(=O)(=O)Nc3ncns3)cc21` [Example 18, 1-Methyl-3-(2-(Pyridin-4-yl)-4-(Trifluoromethyl)Phenyl)-N-(1,2,4-Thiadiazol-5-yl)-1H-Indole-6-Sulfonamide] the same measures were > 10 µM and 0.05 µM.
`Cn1cc(-c2cccnc2)c2ccc(S(=O)(=O)Nc3ncns3)cc21` [Example 9, 1-Methyl-3-(Pyridin-3-yl)-N-(1,2,4-Thiadiazol-5-yl)-1H-Indole-6-Sulfonamide]: the 50% inhibitory concentration (IC50) in data set [1] is > 10 µM; in data set [2], 1.7 µM.
Taken in the same sequence, the figures for `Cn1cc(-c2cc(F)ccc2F)c2ccc(S(=O)(=O)Nc3ncns3)cc21` [Example 10, 3-(2,5-Difluorophenyl)-1-Methyl-N-(1,2,4-Thiadiazol-5-yl)-1H-Indole-6-Sulfonamide] were > 10 µM and 2.13 µM.
In the case of `Cn1nccc1-c1cc(Cl)ccc1-c1c[nH]c2cc(S(=O)(=O)Nc3ncns3)ccc12` [Example 1, 3-(4-Chloro-2-(1-Methyl-1H-Pyrazol-5-yl)Phenyl)-N-(1,2,4-Thiadiazol-5-yl)-1H-Indole-6-Sulfonamide], the IC50 in data set [1] was > 10 µM; in data set [2], 0.445 µM.
Taken in the same sequence, the figures for `Cn1nccc1-c1cc(C(F)(F)F)ccc1-c1cn(C)c2cc(S(=O)(=O)Nc3nncs3)ccc12` [Example 13, 1-Methyl-3-(2-(1-Methyl-1H-Pyrazol-5-yl)-4-(Trifluoromethyl)Phenyl)-N-(1,3,4-Thiadiazol-2-yl)-1H-Indole-6-Sulfonamide] were > 10 µM and 1.86 µM.
For `Cn1nccc1-c1cc(C(F)(F)F)ccc1-c1cn(C)c2cc(S(=O)(=O)Nc3ncns3)ccc12` [Example 8, 1-Methyl-3-(2-(1-Methyl-1H-Pyrazol-5-yl)-4-(Trifluoromethyl)Phenyl)-N-(1,2,4-Thiadiazol-5-yl)-1H-Indole-6-Sulfonamide] the same measures were > 10 µM and 0.147 µM.
Taken in the same sequence, the figures for `COC(=O)n1cc(-c2ccc(C(F)(F)F)cc2-c2ccnn2C)c2ccc(S(=O)(=O)Nc3ncns3)cc21` [Example 6, Methyl 6-(N-(1,2,4-Thiadiazol-5-yl)Sulfamoyl)-3-(2-(1-Methyl-1H-Pyrazol-5-yl)-4-(Trifluoromethyl)Phenyl)-1H-Indole-1-Carboxylate] were > 10 µM and 0.356 µM.
For the compound `COc1ccc(-c2cn(C)c3cc(S(=O)(=O)Nc4ncns4)ccc23)cc1C#N` [Example 60, 3-(3-Cyano-4-Methoxyphenyl)-1-Methyl-N-(1,2,4-Thiadiazol-5-Yl)-1H-Indole-6-Sulfonamide], in data set [1], the 50% inhibitory concentration (IC50) is > 10 µM. In addition, at 4.9 µM the inhibition in data set [2] was 24.7%.
Taken in the same sequence, the figures for `Cc1sc(NS(=O)(=O)c2ccc3c(-c4ccc(C(F)(F)F)cc4-c4ccnn4C)cn(C)c3c2)nc1C(F)(F)F` [Example 20, 1-Methyl-3-(2-(1-Methyl-1H-Pyrazol-5-yl)-4-(Trifluoromethyl)Phenyl)-N-(5-Methyl-4-(Trifluoromethyl)Thiazol-2-yl)-1H-Indole-6-Sulfonamide] were > 10 µM and 36.2%.
Taken in the same sequence, the figures for `Cn1cc(-c2ccc(C(F)(F)F)cc2)c2ccc(S(=O)(=O)Nc3ncns3)cc21` [Example 57, 1-Methyl-N-(1,2,4-Thiadiazol-5-Yl)-3-(4-(Trifluoromethyl)Phenyl)-1H-Indole-6-Sulfonamide] were > 10 µM and 23.3%.
